Source: article PMC12527922, “Cocaine chemogenetics blunts drug-seeking by synthetic physiology” (Nature, 2025)
“And” between values parts separate entries of the source, which are not always exact repeats. Equal values may be shown once. Read-outs that look alike come from different tables or passages of the source.

Key:
unmodified α7–GlyR = target: T1, unmodified α7–GlyR (Homo sapiens, UniProt P23415+P36544); assay: Membrane potential assay, unmodified α7–GlyR; format: cell-based; details: sheet 1d
T1 construct: expressed in transfected cells; host or cells: HEK293 (ATCC CRL-1573), pcDNA3.1
T1 sequence (P36544+P23415 fused): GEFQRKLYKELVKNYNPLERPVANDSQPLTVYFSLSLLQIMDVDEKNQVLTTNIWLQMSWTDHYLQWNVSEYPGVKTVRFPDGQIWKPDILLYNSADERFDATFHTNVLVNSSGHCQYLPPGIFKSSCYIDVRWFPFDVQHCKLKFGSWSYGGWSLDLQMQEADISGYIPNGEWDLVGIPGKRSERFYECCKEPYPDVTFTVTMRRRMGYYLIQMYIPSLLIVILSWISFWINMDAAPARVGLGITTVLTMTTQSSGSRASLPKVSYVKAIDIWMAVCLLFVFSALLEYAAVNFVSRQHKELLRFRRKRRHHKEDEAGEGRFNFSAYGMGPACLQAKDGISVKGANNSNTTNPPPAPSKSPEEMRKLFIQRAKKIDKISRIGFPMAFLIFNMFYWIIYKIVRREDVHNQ

[1] = tested on: α7–5HT3 mutant chimeric channels; assay: cell-based; format: cell-based, human α7 nAChR LBD, mouse 5HT3 IPD; details: for EC50: sheet 1e
coca-5HT3 = assay: Whole-cell voltage-clamp in HEK293 cells, coca-5HT3; format: cell-based, human α7 nAChR LBD, mouse 5HT3 IPD
Protocol: Channel mutants and agonists were further characterized in whole-cell voltage-clamp experiments performed on HEK293 cells. At passage 44–48, cells were plated at low density (1 × 10^3 per cm^2) on poly-D-lysine-coated glass coverslips, then transfected in 10 cm^2 wells using the Fugene 6 transfection reagent (Roche) with DNA plasmids containing both an ion channel cDNA (pcDNA3.1, 2 µg per well) and cDNA for GFP (pCMV, 0.1 μg per well), followed by replacement of the medium after 3 h. Recordings were made 24–72 h after transfection.
Electrophysiological recordings were performed in whole-cell voltage-clamp mode, on an inverted fluorescence microscope (Olympus IX-51) using pClamp software and a […] amplifier (Molecular Devices). Electrophysiological data was filtered at 4 kHz, digitized at 10 kHz using a Digidata 1400 interface (Molecular Devices), recorded on a PC (Dell) and analysed using custom MATLAB software (MathWorks). Solutions were delivered from a gravity fed perfusion system through a capillary tube placed approximately […] from the recorded cell using an eight-way manifold pinch valve system (Nanion), which was controlled from the acquisition software. This allowed for up to seven concentrations of agonist to be tested. […]

unmodified α7–5HT3 = target: T2, unmodified α7–5HT3 (UniProt P23979+P36544, M226I/T225I); assay: Membrane potential assay, unmodified α7–5HT3; format: cell-based, human α7 nAChR LBD, mouse 5HT3 IPD
T2 construct: expressed in transfected cells; host or cells: HEK293 (ATCC CRL-1573), pcDNA3.1
T2 sequence (P36544+P23979 fused P36544:T225I/P36544:M226I): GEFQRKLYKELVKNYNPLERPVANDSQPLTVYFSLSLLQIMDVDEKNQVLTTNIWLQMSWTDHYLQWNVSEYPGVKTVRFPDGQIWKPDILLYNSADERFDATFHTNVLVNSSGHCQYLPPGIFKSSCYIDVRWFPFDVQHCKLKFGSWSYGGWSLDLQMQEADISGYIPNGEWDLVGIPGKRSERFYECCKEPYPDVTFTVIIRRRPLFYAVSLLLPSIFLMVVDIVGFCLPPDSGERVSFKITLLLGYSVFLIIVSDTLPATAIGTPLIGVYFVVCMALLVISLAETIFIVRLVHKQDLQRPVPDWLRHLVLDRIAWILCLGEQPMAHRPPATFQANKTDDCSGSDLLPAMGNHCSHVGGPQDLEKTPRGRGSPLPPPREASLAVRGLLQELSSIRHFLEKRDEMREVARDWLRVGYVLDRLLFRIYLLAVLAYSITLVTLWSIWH

[2] = target: T3, coca-GlyR (α7(L141G,G175K,Y217F)–GlyR) (Homo sapiens, UniProt P23415+P36544, G175K/L141G/Y217F); assay: Membrane potential assay, coca-GlyR in HEK293; format: cell-based
T3 construct: expressed in transfected cells; host or cells: HEK293 (ATCC CRL-1573), pcDNA3.1
T3 sequence (P36544+P23415 fused P36544:L141G/P36544:G175K/P36544:Y217F): as the sequence (P36544+P23415 fused) above, with L119G, G153K, Y195F counted along it

[3] = screen of chimeric α7–5HT3 and α7–GlyR single LBD mutants (Fig. 1d)

Structure (SMILES): COC(=O)[C@H]1[C@@H](OC(=O)c2ccccc2)C[C@@H]2CC[C@H]1N2C [cocaine]
- EC50 at α7-GlyR, Avg (unmodified α7–GlyR; Avg): 30000 nM
- EC50 at α7-GlyR (unmodified α7–GlyR; single determinations): 30000 nM
- agonism at Leu141Gly or Leu141Ala mutant channels [1, 3]: marked induction of cocaine agonism
- agonist activity at Trp77Phe and Leu131Asn mutant channels [1, 3]: some cocaine agonist activity
- EC50 ([1]; AVG, read-out: EC50 at a75HT3 L141G G175K Y115F, AVG): 4780 nM
- EC50 ([1]; AVG, read-out: EC50 at a75HT3 L141G G175K Y210F, AVG): 2270 nM
- EC50 ([1]; AVG, read-out: EC50 at a75HT3 L141G G175K Y217F, AVG): 715 nM
- EC50 ([1]; AVG, read-out: EC50 at a75HT3 L141G G175K, AVG): 315 nM
- EC50 ([1]; AVG, read-out: EC50 at a75HT3 L141G, AVG): 2350 nM
- EC50 ([1]; single determinations, read-out: EC50 at a75HT3 L141G): 2350 nM
- EC50 ([1]; single determinations, read-out: EC50 at a75HT3 L141G G175K): 390 nM and 240 nM
- EC50 ([1]; single determinations, read-out: EC50 at a75HT3 L141G G175K Y217F): 800 nM and 630 nM
- currents from coca-5HT3 (coca-5HT3): robust cocaine-activated currents
- EC50 at a75HT3 unmodified, AVG (unmodified α7–5HT3; sheet 1e, AVG): 30000 nM
- EC50 at a75HT3 unmodified (unmodified α7–5HT3; sheet 1e, single determinations): 30000 nM
- EC50 at α7-5HT3, Avg (unmodified α7–5HT3; sheet 1d, Avg): 30000 nM
- EC50 at α7-5HT3 (unmodified α7–5HT3; sheet 1d, single determinations): 30000 nM
- EC50 [2]: 1200 ± 100 nM
